Experimental data reported in US7067517B2 (priority 2001, dated 2006).
Counter-ions that a name gives are not always drawn.

What was measured:
[1] = target: T1, Hormone-sensitive lipase (HSL) (Homo sapiens, UniProt Q05469); experiment: Test 2848.2: high-volume screening assay, para-nitrophenyl butyrate (p-NPB) substrate; assay type: biochemical; settings: UV-abs 405 nm, 20 min room temp, % Eff (% Inhibition)
T1 sequence (Q05469 1-1076): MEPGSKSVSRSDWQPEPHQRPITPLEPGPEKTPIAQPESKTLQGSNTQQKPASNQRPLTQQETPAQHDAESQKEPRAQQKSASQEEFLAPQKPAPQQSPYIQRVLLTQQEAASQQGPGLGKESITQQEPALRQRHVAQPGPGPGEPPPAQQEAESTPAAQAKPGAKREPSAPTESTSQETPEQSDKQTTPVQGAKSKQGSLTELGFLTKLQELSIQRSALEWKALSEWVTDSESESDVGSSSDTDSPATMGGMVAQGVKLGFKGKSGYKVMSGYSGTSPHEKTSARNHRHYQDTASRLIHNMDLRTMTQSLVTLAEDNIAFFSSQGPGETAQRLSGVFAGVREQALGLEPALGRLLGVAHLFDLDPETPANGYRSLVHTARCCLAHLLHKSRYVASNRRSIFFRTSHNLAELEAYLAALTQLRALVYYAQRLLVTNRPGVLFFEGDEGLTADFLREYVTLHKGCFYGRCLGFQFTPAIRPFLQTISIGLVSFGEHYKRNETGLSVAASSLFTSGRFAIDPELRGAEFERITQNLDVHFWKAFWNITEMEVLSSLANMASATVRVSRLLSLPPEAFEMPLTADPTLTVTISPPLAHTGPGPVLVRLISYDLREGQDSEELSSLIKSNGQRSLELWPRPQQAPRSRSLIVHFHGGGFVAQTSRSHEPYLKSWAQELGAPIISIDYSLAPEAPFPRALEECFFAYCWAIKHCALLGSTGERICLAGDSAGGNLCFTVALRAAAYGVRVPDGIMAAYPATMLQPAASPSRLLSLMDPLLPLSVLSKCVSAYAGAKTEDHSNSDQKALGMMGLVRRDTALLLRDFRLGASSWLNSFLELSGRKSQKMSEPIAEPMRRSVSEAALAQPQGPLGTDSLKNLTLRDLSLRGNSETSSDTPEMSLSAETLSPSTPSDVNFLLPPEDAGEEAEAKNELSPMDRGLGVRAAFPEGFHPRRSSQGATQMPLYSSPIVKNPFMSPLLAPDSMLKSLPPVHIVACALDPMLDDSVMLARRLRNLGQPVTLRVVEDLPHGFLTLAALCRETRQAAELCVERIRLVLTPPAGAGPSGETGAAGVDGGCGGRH
Description: Materials. The Hormone-sensitive lipase was provided by Dr. Cecilia Holm, from Lund University Sweden or produced and purified by Novo Nordisk (NN) using the reagents and protocols used by Dr. Holm. The substrates used are: ^3H-labeled triolein (TO) from Amersham, Buckinghamshire, U.K. cat No. TRA191; 5–20 Ci/mmol dissolved in toluene, triolein (Sigma, Cat. No. T-1740), fluorochrome-labeled triacylglyceride (cis-octadec-9-enoic acid 2-[12-(7-nitrobenzo[1,2,5]oxadiazol-4-ylamino)dodecanoyloxy]-1-cis-octadec-9-enoyloxymethyl-ethyl ester) prepared by Novo Nordisk (NN) by conventional methods, and 1,3-(di[^3H]-stearin), 2-(PEG-Boitin)glycerol prepared in collaboration with Amersham Pharmacia Biotech, UK and described in WO 01/073442. Phosphatidyl choline (PC) and phosphatidyl inositol (PI) are from Sigma (St Luis Mo. cat. Nos. P-3556 and P-5954 respectively). All other reagents are of commercial grade and obtained from various commercial sources.
2848.2: This high-volume screening assay uses para-nitrophenyl butyrate (p-NPB) as substrate for HSL. HSL cleaves p-NPB and the reaction is monitored as an increase in the concentration of para-nitrophenol (p-NP). p-NP can be monitored as an increase in UV-absorbance at 405 nm. The reaction is carried out at room-temp. for 20 min. The action is not stopped, but instead UV-abs is measured at a fixed time (20 min.) Due to autohydrolysis of the substrate the reaction is read at t=0 min. too and t=20 min. and the increase in Abs is calculated as the difference between the two readings. When a compound that inhibits HSL is present, it results in a relative decrease in UV-absorbance. % Eff(% Inhibition)=(S−S0Eff)/(SmaxEff−S0Eff)×100 Where S=signal in UV-abs., S0Eff=assaybuffer alone, SmaxEff=Assaybuffer with the lipase inhibitor.

Row | Compound | melting point | Test 2848.2 HSL % Inhibition All [1]
1 | Cc1c(Cc2ccc(F)cc2)c(=O)oc2cc(OC(=O)N(C)c3ccccc3)ccc12 | 185 to 186 °C | –
2 | O=C(Oc1ccc(Oc2ccc(C(F)(F)F)cn2)cc1)N1CCN(c2ccccc2)CC1 | 117 °C | –
3 | CN(C(=O)On1cccn1)c1ccccc1 | 63 to 67 °C | –
4 | O=C(Oc1ccc(Oc2ccc(C(F)(F)F)cn2)cc1)N1CCN(c2ccc3c(c2)OCO3)CC1 | 146 to 147 °C | –
5 | O=C(Oc1ccc(Oc2ccc(C(F)(F)F)cn2)cc1)N1CCN(c2ncccn2)CC1 | 120 to 121 °C | –
6 | O=C(Oc1ccc(Oc2ccc(C(F)(F)F)cn2)cc1)N1CCN(c2ccc(Cl)c(Cl)c2)CC1 | 115 to 116 °C | –
7 | O=C(Oc1ccc(Oc2ccc(C(F)(F)F)cn2)cc1)N1CCN(c2cnccn2)CC1 | 160 to 161 °C | –
8 | O=C(Oc1ccc(Oc2ccc(C(F)(F)F)cn2)cc1)N1CCCN(Cc2ccc(-c3ccccc3)cc2)CC1 | 143 °C | –
9 | O=C(Oc1ccc(Oc2ccc(C(F)(F)F)cn2)cc1)N1CCN(c2ncccc2C(F)(F)F)CC1 | 131 to 132 °C | –
10 | Cc1cc(C)nc(Sc2ccc(OC(=O)N3CCN(Cc4cccc(F)c4)CC3)cc2)n1 | 117 to 118 °C | –
11 | COc1ccc(N2CCN(C(=O)Oc3ccc(Oc4ccc(C(F)(F)F)cn4)cc3)CC2)c(OC)c1 | 98 to 99 °C | –
12 | O=C(Oc1ccc(Oc2ccc(C(F)(F)F)cn2)cc1)N1CC2CC1CN2Cc1ccccc1 (centres unmarked) | 114 to 115 °C | –
13 | O=C(Oc1ccc(Oc2ccc(C(F)(F)F)cn2)cc1)N1CCN(Cc2ccc3c(c2)OCO3)CC1 (as salt: hydrochloride) | 239 to 240 °C | –
14 | O=C(Oc1ccc(Oc2ccc(C(F)(F)F)cn2)cc1)N1CCN(Cc2ccccc2)CC1 (as salt: hydrochloride) | 229 to 231 °C | –
15 | O=C(Oc1ccc(Oc2ccc(C(F)(F)F)cn2)cc1)N1CCN(CCO)CC1 (as salt: hydrochloride) | 255 °C | –
16 | O=C(CN1CCN(C(=O)Oc2ccc(Oc3ccc(C(F)(F)F)cn3)cc2)CC1)N1CCCC1 (as salt: hydrochloride) | 224 °C | –
17 | O=C(Oc1ccc(Oc2ccc(C(F)(F)F)cn2)cc1)N1CCN(C2CCCC2)CC1 (as salt: hydrochloride) | 294 to 295 °C | –
18 | CCCCN1CCN(C(=O)Oc2ccc(Oc3ccc(C(F)(F)F)cn3)cc2)CC1 (as salt: hydrochloride) | 221 to 222 °C | –
19 | O=C(Oc1ccc(Oc2ccc(C(F)(F)F)cn2)cc1)N1CCN(c2ccccn2)CC1 (as salt: hydrochloride) | 247 to 248 °C | –
20 | CC(C)(C)c1ccc(CN2CCN(C(=O)Oc3ccc(Oc4ccc(C(F)(F)F)cn4)cc3)CC2)cc1 (as salt: hydrochloride) | 274 to 275 °C | –
21 | O=C(Oc1ccc(Oc2ccc(C(F)(F)F)cn2)cc1)N1CCN(Cc2ccc(F)cc2)CC1 (as salt: hydrochloride) | 240 to 243 °C | –
22 | O=C(Oc1ccc(Oc2ccc(C(F)(F)F)cn2)cc1)N1CCN(CCc2cccs2)CC1 (as salt: hydrochloride) | 236 to 237 °C | –

Row | Compound | melting point | Test 2848.2 HSL % Inhibition All [1]
23 | O=C(Oc1ccc(Oc2ccc(C(F)(F)F)cn2)cc1)N1CCN(Cc2ccccn2)CC1 (as salt: hydrochloride) | 189 to 190 °C | –
24 | O=C(Oc1ccc(Oc2ccc(C(F)(F)F)cn2)cc1)N1CCN(c2ccc(F)cc2)CC1 (as salt: hydrochloride) | 131 to 132 °C | –
25 | O=C(Oc1ccc(Oc2ccc(C(F)(F)F)cc2)cc1)N1CCN(CCOCCO)CC1 (as salt: hydrochloride) | 176 to 178 °C | –
26 | O=C(Oc1ccc(Oc2ccc(C(F)(F)F)cc2)cc1)N1CCN(C2CCCCC2)CC1 (as salt: hydrochloride) | 290 to 291 °C | –
27 | Cc1ccc(CN2CCN(C(=O)Oc3ccc(Oc4ccc(C(F)(F)F)cc4)cc3)CC2)cc1 (as salt: hydrochloride) | 250 to 252 °C | –
28 | COc1ccc(CN2CCN(C(=O)Oc3ccc(Oc4ccc(C(F)(F)F)cn4)cc3)CC2)cc1 (as salt: hydrochloride) | 237 to 238 °C | –
29 | O=C(Oc1ccc(Oc2ccc(C(F)(F)F)cn2)cc1)N1CCN(Cc2c(F)cccc2Cl)CC1 (as salt: hydrochloride) | 204 to 205 °C | –
30 | COc1cccc(N2CCN(C(=O)Oc3ccc(Oc4ccc(C(F)(F)F)cc4)cc3)CC2)c1 (as salt: hydrochloride) | 168 to 171 °C | –
31 | O=C(Oc1ccc(Oc2ncc(C(F)(F)F)cc2Cl)cc1)N1CCN(Cc2ccccc2)CC1 (as salt: hydrochloride) | 111 to 113 °C | –
32 | COc1cccc(CN2CCN(C(=O)Oc3ccc(Oc4ccc(C(F)(F)F)cn4)cc3)CC2)c1 (as salt: hydrochloride) | 214 to 215 °C | –
33 | O=C(Oc1ccc(Oc2ccc(C(F)(F)F)cn2)cc1)N1CCN(Cc2cccc(F)c2)CC1 (as salt: hydrochloride) | 138 to 139 °C | –
34 | O=C(Oc1ccc(Oc2ccc(C(F)(F)F)cn2)cc1)N1CCN(CCc2ccncc2)CC1 (as salt: hydrochloride) | 268 to 271 °C (dec.) | –
35 | Cc1ccc(NC(C=O)=NOC(=O)NC2CCCCC2)cc1 [Example 104, 2-Oxo-N-p-tolylacetamide O-(cyclohexylcarbamoyl)-oxime] | – | 19.8%
36 | O=C(NC1CCCCC1)ON=C1c2ccccc2CCc2ccccc21 [Example 105, 10,11-Dihydro-dibenzo[a,d]cyclohepten-5-one O-cyclohexylcarbamoyl-oxime] | – | 26.8%
37 | CCCCCCC(C=Cc1ccc(Cl)cc1)=NOC(=O)NC1CCCCC1 [Example 106, 1-(4-Chlorophenyl)-non-1-en-3-one O-cyclohexylcarbamoyl-oxime] | – | 23.8%
38 | CC12CCC(CC1=NOC(=O)NC1CCCCC1)C2(C)C (centres unmarked) [Example 107, 1,7,7-Trimethyl-bicyclo[2.2.1]heptan-2-one O-cyclohexylcarbamoyl-oxime] | – | 59.9%
39 | CC(C)CCC(C=Cc1ccc(Br)cc1)=NOC(=O)NC(C)C [Example 108, 1-(4-Bromophenyl)-6-methyl-hept-1-en-3-one O-isopropylcarbamoyl-oxime] | – | 37.2%
40 | CCCCCCC(C=Cc1ccc(Cl)cc1)=NOC(=O)NC(C)C [Example 109, 1-(4-Chloro-phenyl)-non-1-en-3-one O-isopropylcarbamoyl-oxime] | – | 15.9%
41 | CNC(=O)ON=Cc1c(Br)cnn1Cc1ccc(Cl)cc1 [Example 110, 4-Bromo-2-(4-chlorobenzyl)-2H-pyrazole-3-carbaldehyde O-methylcarbamoyl-oxime] | – | 18.8%
42 | CCCNC(=O)ON=C(C=Cc1ccc(Br)cc1)CCC(C)C [Example 111, 1-(4-Bromophenyl)-6-methyl-hept-1-en-3-one O-propylcarbamoyl-oxime] | – | 36.2%
43 | CN(C)C(=O)On1ccc2ccc(S(C)(=O)=O)cc21 [Example 114, Dimethylcarbamic acid 6-methanesulfonyl-indol-1-yl ester] | – | 42.4%
44 | CN(C)C(=O)On1nnc2ccccc2c1=O [Example 116, Dimethylcarbamic acid 4-oxo-1,2,3-benzotriazin-3-yl ester] | – | 23.5%
